Entries after “also recorded” stand apart in the source; their conditions may differ.
Assays:
[1] = system: early growth response protein 1 (EGR1); experiment: EGR1 immunohistochemistry of L4-L6 spinal cord; format: in vivo, rat; conditions: rats, 3 hours after carrageenan; carrageenan alone increased ~5 fold
Method: Immunohistochemistry. Animals were anesthetized with ketamine (90 mg/kg) and xylazine (15 mg/kg) after 3 hours of the experimental protocol. Subsequently, animals were perfused with 4% paraformaldehyde (PFA) in 0.1 M phosphate buffer (PB, pH 7.4). Spinal cord sections (L4-L6) were removed, post-fixed for 4 h in PFA (4%), and transferred to a 30% sucrose solution in PB to ensure cryoprotection. […] The sections were immunostained for early growth response-1 gene (EGR1) expression, using a rabbit polyclonal antibody (Santa Cruz Biotechnology 1:500) in PB containing 0.3% Triton X-100 and 5% normal donkey serum. Incubations with primary antibody were conducted overnight at 24° C. The sections were then washed in PB and incubated with a biotinylated donkey anti-rabbit serum (Vector, Burlingame 1:200) in PB for 2 h at 24° C. The sections were washed again in PB and incubated with the avidin-biotin-peroxidase complex (ABC Elite, Vector Labs, USA). The sections were then reacted with 0.05% 3,3-diaminobenzidine and 0.01% hydrogen peroxide in PB. Intensification was conducted with 0.05% osmium tetroxide in water. The sections were dehydrated, cleared and mounted on a cover-slip. Normal rat serum served as control. Digital images of light microscopy were collected and cells with positive EGR were counted.

malondialdehyde (MDA) = experiment: Thiobarbituric acid-reactive substance assay (malondialdehyde) in paw homogenate; format: in vivo, rat; conditions: rats, 3 hours after carrageenan; P<0.05
Method: Thiobarbituric acid-reactive substance assay. Thiobarbituric acid-reactive substance (TBARS) was measured using an Oxi-Tek TBARS assay kit (ZeptoMetrix, Buffalo, N.Y.). In brief, 100 μL of plantar homogenates were mixed with 100 μl sodium dodecyl sulfonate solution. TBA/buffer reagent was prepared by mixing 0.5 g thiobarbituric acid with 50 ml acetic acid and 50 ml NaOH. TBA/buffer reagent (2.5 ml) was added to 200 μL sample/sodium dodecyl sulfonate mixture and incubated at 95° C. in capped tubes for 60 min. The samples were cooled to room temperature in an ice bath for 10 min and centrifuged at 3,000 g for 15 min. The supernatants were removed, and fluorescence intensity was measured in semi-microcuvettes in a fluorometer (Bio-Rad Laboratories, Hercules, Calif.). The concentration of TBARS was expressed in pmol/mg protein by interpolation from a standard curve of malondialdehyde at 0-200 pmol concentrations. The results are expressed as percent control.

ALDH2 wild type mice = experiment: von Frey hair test, carrageenan-induced acute pain model, wild type mice; format: in vivo, mouse; conditions: von Frey hair (1.20 gram in FIG. 1E), Alda-1 2 mg/kg s.c.
[2] = system: rats subjected to prostaglandin E2 insult to the right hind paw; experiment: Randall-Selitto paw pressure test, prostaglandin E2-induced hyperalgesia in rats; format: in vivo, rat
Method: Rats. Male Wistar rats (170-190 g) were provided by Charles River Laboratories or Butantan Institute Animal Facility and housed in a temperature-controlled (22±1° C.) and light-controlled (12/12 h light/dark cycle) room. All rats were housed in their surrounding for at least 3 days. Groups of 5-6 rats were used.
Drugs Used. 0.1 ml saline (control), carrageenan (200 μg for rats, 100 μg for mice; Marine Colloids), or prostaglandin E2 (100 ng, Sigma) was administered by intraplantar injection into the right hind paw to induce hyperalgesia. […]
Nociception Assessment. […] Nociceptive response was assessed by the von Frey method for mice and the Randall-Selitto method for rats immediately before and 180 minutes after carrageenan or prostaglandin E2 injection. […]
Randall-Selitto method: Nociceptive threshold was determined using the Randall-Selitto paw pressure test (Ugo-Basile), as previously described (Gutierrez V P, et al., (2008) Crotalphine induces potent antinociception in neuropathic pain by acting at peripheral opioid receptors. European journal of pharmacology 594: 84-92). […]

[3] = system: carrageenan-induced edema; experiment: Edema assessment of the carrageenan-injected paw (plethysmometer); format: in vivo, rat; conditions: rats, 3 hr after carrageenan; Alda-1-treated versus vehicle-treated
Method: Edema Assessment. Inflammation-induced edema of the injected paw was assessed using a plethysmometer (Ugo Basile) (Clapper J R, et al., (2010) Anandamide suppresses pain initiation through a peripheral endocannabinoid mechanism. Nature neuroscience 13: 1265-1270; Van Arman C G, et al., (1965) Some details of the inflammation caused by yeast and carragenin. J Pharmacol Exp Ther 150: 328-333).

[4] = system: ALDH2 *1/*2 heterozygous mice; experiment: von Frey hair test, carrageenan-induced acute pain model, ALDH2 *1/*2 heterozygous mice; format: in vivo, mouse; conditions: von Frey hair (1.20 gram in FIG. 1E), Alda-1 2 mg/kg s.c.

O=C(NCc1ccc2c(c1)OCO2)c1c(Cl)cccc1Cl [Alda-1, N-(1,3-benzodioxol-5-ylmethyl)-2,6-dichlorobenzamide]
EGR1 levels in L4-6 spinal cord (marker of hyperalgesia) [1]: brought EGR1 levels to those seen in baseline; also recorded: brought back to basal levels
Malondialdehyde (MDA) levels in the inflamed paw (malondialdehyde (MDA)): reduced
Nociceptive threshold relative to vehicle-treated mice (ALDH2 wild type mice): significantly increased pain threshold; also recorded: doubling the nociceptive threshold
Increase of nociceptive threshold ([2]; prostaglandin E2-induced model, Alda-1 2 mg/kg s.c. 15 min before and 30 and 150 min after insult, tested 3 hours after insult): 2 fold
Nociceptive threshold (FIG. 1B) ([2]; prostaglandin E2 insult, Alda-1 2 mg/kg s.c., 3 hours after insult, P<0.001): significantly increased nociceptive threshold
Carrageenan-induced increase in paw diameter (edema) [3]: no differences; also recorded: unaffected
Response to nociceptive stimulus / pain threshold [4]: significantly increased pain threshold; also recorded: bringing the response to wild type levels

From US9545393B2, “Methods and compositions for treating pain” (The Board of Trustees of the Leland Stanford Junior …, priority 2012, dated 2017)
